Assays:
[1] = tested on: Human whole blood; assay: IRAK4 Whole Blood Assay (IL-6 levels after stimulation with TLR2 agonist lipoteichoic acid); assay type: cell-based; conditions: 10 μg/mL lipoteichoic acid, 5 hours
Method: Human whole blood containing the anti-coagulant ACD-A was plated in 384-well plate (25 μL/well) and incubated with compounds for 60 minutes at 37° C. in a 5% CO2 incubator. The blood was stimulated with a TLR2 agonist, 10 μg/mL final concentration of lipoteichoic acid (Invivogen, San Diego, CA) in 25 μL RPMI (Gibco) for 5 hours in a 5% CO2 incubator. At the end of the incubation, plates were centrifuged at 2300 rpm for 5 minutes. Supernatants were harvested and analyzed for IL-6 levels by Flow Cytometry beads assay (BD Biosciences, San Jose, CA).

[2] = target: IRAK4 (Homo sapiens (Human), UniProt Q9NWZ3); assay: IRAK4 Inhibition Assay; assay type: biochemical; conditions: ATP 500 μM; IRAK4 0.6 nM; 60 min room temperature; Caliper LABCHIP 3000
Sequence of IRAK4 (Q9NWZ3 whole entry, species assumed): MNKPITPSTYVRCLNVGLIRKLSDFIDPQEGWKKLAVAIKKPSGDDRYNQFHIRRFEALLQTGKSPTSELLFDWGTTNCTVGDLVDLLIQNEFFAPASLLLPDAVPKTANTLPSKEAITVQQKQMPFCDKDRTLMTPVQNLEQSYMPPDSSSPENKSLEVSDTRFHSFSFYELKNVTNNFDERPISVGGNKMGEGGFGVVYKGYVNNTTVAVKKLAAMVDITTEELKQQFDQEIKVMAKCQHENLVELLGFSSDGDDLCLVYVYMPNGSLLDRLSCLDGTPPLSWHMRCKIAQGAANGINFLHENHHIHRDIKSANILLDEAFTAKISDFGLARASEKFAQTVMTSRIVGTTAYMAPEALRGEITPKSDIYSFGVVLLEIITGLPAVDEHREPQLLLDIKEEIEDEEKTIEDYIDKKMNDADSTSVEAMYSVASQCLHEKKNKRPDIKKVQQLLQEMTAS
Method: The assays were performed in U-bottom 384-well plates. The final assay volume was 30 μL prepared from 15 μL additions of enzyme and substrates (fluoresceinated peptide and ATP) and test compounds in assay buffer (20 mM HEPES pH 7.2, 10 mM MgCl2, 0.015% Brij 35 and 4 mM DTT). The reaction was initiated by the combination of IRAK4 with substrates and test compounds. The reaction mixture was incubated at room temperature for 60 min. and terminated by adding 45 μL of 35 mM EDTA to each sample. The reaction mixture was analyzed on the Caliper LABCHIP® 3000 (Caliper, Hopkinton, MA) by electrophoretic separation of the fluorescent substrate and phosphorylated product. Inhibition data were calculated by comparison to no enzyme control reactions for 100% inhibition and vehicle-only reactions for 0% inhibition. The final concentrations of reagents in the assays are ATP, 500 μM; FL-IPTSPITTTYFFFKKK peptide 1.5 μM; IRAK4, 0.6 nM; and DMSO, 1.6%.

| Structure (SMILES) | EC50 [1] | IC50 [2] |
| --- | --- | --- |
| CC(C)Nc1c(C(=O)NCCC2CC2)cnc2ccc(-c3cncs3)nc12 [Example 148, N-(2-cyclopropylethyl)-4-(isopropylamino)-6-(thiazol-5-yl)-1,5-naphthyridine-3-carboxamide] | 5420 nM | 16.4 nM |
| CC(C)Nc1c(C(=O)NCCS(C)(=O)=O)cnc2ccc(-c3cn[nH]c3)cc12 [Example 88, 4-(isopropylamino)-N-(2-(methylsulfonyl)ethyl)-6-(1H-pyrazol-4-yl)quinoline-3-carboxamide] | 1520 nM | 18.5 nM |
| CC(C)Nc1c(C(=O)NC2CCN(C(=O)C3CC3)CC2)cnc2ccc(-c3cn[nH]c3)cc12 [Example 81, N-(1-(cyclopropanecarbonyl)piperidin-4-yl)-4-(isopropylamino)-6-(1H-pyrazol-4-yl)quinoline-3-carboxamide] | 1400 nM | 11.7 nM |
| CC(C)Nc1c(C(=O)NCCCn2ccnc2)cnc2ccc(-c3cn[nH]c3)cc12 [Example 103, N-(3-(1H-imidazol-1-yl)propyl)-4-(isopropylamino)-6-(1H-pyrazol-4-yl)quinoline-3-carboxamide] | 2720 nM | 11 nM |
| CC(C)CCNC(=O)c1cnc2ccc(-c3cn[nH]c3)cc2c1NC(C)C [Example 15, N-isopentyl-4-(isopropylamino)-6-(1H-pyrazol-4-yl)quinoline-3-carboxamide] | 675 nM | 7.7 nM |
| CC(=O)N[C@H]1C[C@H](NC(=O)c2cnc3ccc(-c4cn[nH]c4)cc3c2NC(C)C)C1 [Example 46, N-((1r,3r)-3-acetamidocyclobutyl)-4-(isopropylamino)-6-(1H-pyrazol-4-yl)quinoline-3-carboxamide] | 2100 nM | 6.6 nM |
| CC1(Nc2c(C(=O)NCCc3cccnc3)cnc3ccc(-c4cn[nH]c4)cc23)CC1 [Example 122, 4-((1-methylcyclopropyl)amino)-6-(1H-pyrazol-4-yl)-N-(2-(pyridin-3-yl)ethyl)quinoline-3-carboxamide] | 1270 nM | 2.5 nM |
| CC(C)Nc1c(-c2cn(CCCO)nn2)cnc2ccc(-c3cn[nH]c3)cc12 [Example 131, 3-(4-(4-(isopropylamino)-6-(1H-pyrazol-4-yl)quinolin-3-yl)-1H-1,2,3-triazol-1-yl)propan-1-ol] | 713 nM | 7.8 nM |
| CC(O)CCNC(=O)c1cnc2ccc(-c3cn[nH]c3)cc2c1NCC(F)F (centres unmarked) [Example 65, 4-((2,2-difluoroethyl)amino)-N-(3-hydroxybutyl)-6-(1H-pyrazol-4-yl)quinoline-3-carboxamide] | 2200 nM | – |
| CC(C)Nc1c(C(=O)NCCC(C)(C)O)cnc2ccc(-c3ccc(C#N)nc3)cc12 [Example 69, 6-(6-cyanopyridin-3-yl)-N-(3-hydroxy-3-methylbutyl)-4-(isopropylamino)quinoline-3-carboxamide] | – | 131 nM |
| CC(C)Nc1c(C(=O)NC[C@@H](F)C(C)(C)O)cnc2ncc(-c3cn[nH]c3)cc12 [Example 161, (R)—N-(2-fluoro-3-hydroxy-3-methylbutyl)-4-(isopropylamino)-6-(1H-pyrazol-4-yl)-1,8-naphthyridine-3-carboxamide] | – | 1210 nM |
| CC(O)CNc1c(C(=O)NC[C@@H](F)C(C)(C)O)cnc2ccc(-c3cncs3)cc12 (stereo partly drawn) [Example 32, N—((R)-2-fluoro-3-hydroxy-3-methylbutyl)-4-((2-hydroxypropyl)amino)-6-(thiazol-5-yl)quinoline-3-carboxamide] | – | 116 nM |
| CC(C)CCc1nc(-c2cnc3ccc(-c4cn[nH]c4)cc3c2NC(C)C)n[nH]1 [Example 126, 3-(5-isopentyl-1H-1,2,4-triazol-3-yl)-N-isopropyl-6-(1H-pyrazol-4-yl)quinolin-4-amine] | – | 34.4 nM |
| CC(C)(O)CCNC(=O)c1cnc2ccc(-c3cn[nH]c3)cc2c1NC1CC(F)(F)C1 [Example 52, 4-((3,3-difluorocyclobutyl)amino)-N-(3-hydroxy-3-methylbutyl)-6-(1H-pyrazol-4-yl)quinoline-3-carboxamide] | – | 23.9 nM |
| CC(C)Nc1c(C(=O)NCCC(=O)N(C)C)cnc2ccc(-c3cn[nH]c3)cc12 [Example 49, N-(3-(dimethylamino)-3-oxopropyl)-4-(isopropylamino)-6-(1H-pyrazol-4-yl)quinoline-3-carboxamide] | – | 29.8 nM |
| CCNc1c(C(=O)NC[C@@H](F)C(C)(C)O)cnc2ccc(-c3cncs3)cc12 [Example 28, (R)-4-(ethylamino)-N-(2-fluoro-3-hydroxy-3-methylbutyl)-6-(thiazol-5-yl)quinoline-3-carboxamide] | – | 81.2 nM |
| CC(C)Nc1c(C(=O)NCC(C)(C)CO)cnc2ccc(-c3cn[nH]c3)cc12 [Example 19, N-(3-hydroxy-2,2-dimethylpropyl)-4-(isopropylamino)-6-(1H-pyrazol-4-yl)quinoline-3-carboxamide] | – | 94.8 nM |
| CC(C)Nc1c(-c2cc(C3CCCCN3)no2)cnc2ccc(-c3cn[nH]c3)cc12 (centres unmarked) [Example 128, N-isopropyl-3-(3-(piperidin-2-yl)isoxazol-5-yl)-6-(1H-pyrazol-4-yl)quinolin-4-amine] | 758 nM | – |
| CC(C)Nc1c(C(=O)NCC2(C)NC(=O)NC2=O)cnc2ccc(-c3cn[nH]c3)cc12 (centres unmarked) [Example 105, 4-(isopropylamino)-N-((4-methyl-2,5-dioxoimidazolidin-4-yl)methyl)-6-(1H-pyrazol-4-yl)quinoline-3-carboxamide] | – | 338 nM |
| O=C(NCCC(F)(F)F)c1cnc2ccc(-c3cn[nH]c3)cc2c1NC1CC(F)(F)C1 [Example 55, 4-((3,3-difluorocyclobutyl)amino)-6-(1H-pyrazol-4-yl)-N-(3,3,3-trifluoropropyl)quinoline-3-carboxamide] | – | 53.1 nM |

Results, then the compound that gave them:

| EC50 [1] | IC50 [2] | Structure (SMILES) |
| --- | --- | --- |
| 606 nM | 4.1 nM | CC1(Nc2c(C(=O)NCC3CCS(=O)(=O)C3)cnc3ccc(-c4cn[nH]c4)cc23)CC1 (centres unmarked) [Example 123, N-((1,1-dioxidotetrahydrothiophen-3-yl)methyl)-4-((1-methylcyclopropyl)amino)-6-(1H-pyrazol-4-yl)quinoline-3-carboxamide] |
| 6040 nM | 8.7 nM | O=C(NCCC1CCS(=O)(=O)CC1)c1cnc2ccc(-c3cn[nH]c3)cc2c1NC1CC1 [Example 120, 4-(cyclopropylamino)-N-(2-(1,1-dioxidotetrahydro-2H-thiopyran-4-yl)ethyl)-6-(1H-pyrazol-4-yl)quinoline-3-carboxamide] |
| – | 32.7 nM | CC(C)Nc1c(C(=O)NCCC(=O)N2CCCC2)cnc2ccc(-c3cn[nH]c3)cc12 [Example 50, 4-(isopropylamino)-N-(3-oxo-3-(pyrrolidin-1-yl)propyl)-6-(1H-pyrazol-4-yl)quinoline-3-carboxamide] |
| – | 118 nM | CC(C)Nc1c(C(=O)NCCc2ncno2)cnc2ccc(-c3cn[nH]c3)cc12 [Example 106, N-(2-(1,2,4-oxadiazol-5-yl)ethyl)-4-(isopropylamino)-6-(1H-pyrazol-4-yl)quinoline-3-carboxamide] |
| – | 554 nM | CNc1c(C(N)=O)cnc2ccc(-c3cn[nH]c3)cc12 [Example 108, 4-(methylamino)-6-(1H-pyrazol-4-yl)quinoline-3-carboxamide] |
| – | 29.9 nM | COC(=O)NC1CC(NC(=O)c2cnc3ccc(-c4cn[nH]c4)cc3c2NC2CC(F)(F)C2)C1 (centres unmarked) [Example 58, methyl ((1r,3r)-3-(4-((3,3-difluorocyclobutyl)amino)-6-(1H-pyrazol-4-yl)quinoline-3-carboxamido)cyclobutyl)carbamate] |
| – | 31.6 nM | CC(=O)N[C@H]1CC[C@H](NC(=O)c2cnc3ccc(-c4cccnc4)nc3c2NC(C)C)CC1 [Example 153, N-((1r,4r)-4-acetamidocyclohexyl)-4-(isopropylamino)-6-(pyridin-3-yl)-1,5-naphthyridine-3-carboxamide] |
| – | 51.2 nM | CC(C)Nc1c(C(=O)NCCC(C)(C)O)cnc2ccc(-c3ccc(F)nc3F)cc12 [Example 73, 6-(2,6-difluoropyridin-3-yl)-N-(3-hydroxy-3-methylbutyl)-4-(isopropylamino)quinoline-3-carboxamide] |
| – | 32.2 nM | CC(C)Nc1c(C(=O)NC2CN(S(C)(=O)=O)C2)cnc2ccc(-c3cn[nH]c3)cc12 [Example 92, 4-(isopropylamino)-N-(1-(methylsulfonyl)azetidin-3-yl)-6-(1H-pyrazol-4-yl)quinoline-3-carboxamide] |
| – | 119 nM | CC(C)Nc1c(C(=O)NCCC(C)(C)O)cnc2ccc(-c3ccc(F)nc3)cc12 [Example 70, 6-(6-fluoropyridin-3-yl)-N-(3-hydroxy-3-methylbutyl)-4-(isopropylamino)quinoline-3-carboxamide] |
| – | 157 nM | CC(C)(O)[C@H](F)CNC(=O)c1cnc2ccc(-c3cn[nH]c3)cc2c1Nc1cnn(CC(F)F)c1 [Example 33, (R)-4-((1-(2,2-difluoroethyl)-1H-pyrazol-4-yl)amino)-N-(2-fluoro-3-hydroxy-3-methylbutyl)-6-(1H-pyrazol-4-yl)quinoline-3-carboxamide] |
